Structures are written as SMILES. Read-outs that look alike come from different tables or passages of the source.

The nature of series [1]: In vitro anticancer activity, MTT assay. In kind it is cell-based. The following applies: kidney cancer cell line, MTT, 48 h continuous drug exposure. The gist of the method: (§1)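 MTT-based cytotoxicity. Continuous exposure lasted 48 h. IC50 relative to control.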
(Formazan colour is commonly taken as a measure of viable cells.)

Series [2] relates to IEC-6 small intestine cell line. The series is described as follows: In vitro anticancer activity, MTT assay. In kind it is cell-based. The following applies: for in-vitro cytotoxicity in small intestine cancer cell line (IEC-6): result in words. The gist of the method: as §1
For series [3], the system named is L-6 skeletal cancer cell line. The series is described as follows: In vitro anticancer activity, MTT assay. In kind it is cell-based. The following applies: result in words. Summed up: as §1
For series [4], the system named is COS-1 kidney cancer cell line. The series is described as follows: In vitro anticancer activity, MTT assay. In kind it is cell-based. The following applies: for in-vitro cytotoxicity in kidney cancer cell line (COS-1): result in words. Summed up: as §1
The test system of a further series is L-6. The series is described as follows: In vitro anticancer activity, MTT assay. In kind it is cell-based. The following applies: skeletal cancer cell line; MTT, 48 h continuous drug exposure. The gist of the method: as §1
Another series has as its system calf thymus DNA (CT-DNA). The series can be described thus: Thermal denaturation studies with duplex-form calf thymus DNA. In kind it is binding. The following applies: [PND]/[DNA] molar ratio 1:5, CT-DNA 100 μM, ligand 20 μM, aqueous sodium phosphate buffer pH 7; for ΔTm after incubation at 37° C. for 0 hr: 0 hr at 37° C.; for ΔTm after incubation at 37° C. for 18 hrs: 18 hrs at 37° C. Summed up:
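CT-DNA (100 μM in phosphate) with 20 μM compound (1:5 ligand:DNA) in pH 7.00 phosphate/EDTA buffer, incubated 0 or 18 h at 37 °C. A260 monitored while heating 1 °C/min over 40–110 °C. Tm from d(A260)/dT maxima; ΔTm = Tm(DNA+compound) − Tm(DNA alone).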

Series [5] concerns HEPG2 liver cancer cell line. The series is described as follows: In vitro anticancer activity, MTT assay. In kind it is cell-based, human. The following applies: for in-vitro cytotoxicity in liver cancer cell line (HEPG2): result in words. Summed up:
as §1

The subject of series [6] is PC-3 prostrate cancer cell line. The series can be described thus: In vitro anticancer activity, MTT assay. In kind it is cell-based, human. The following applies: for IC50: prostrate cancer cell line, MTT, 48 h continuous drug exposure; for in-vitro cytotoxicity in prostrate cancer cell line (PC-3): result in words. Summed up: as §1
Series [7] deals with NCIH460 large cell lung cancer cell line. The series can be described thus: In vitro anticancer activity, MTT assay. The following applies: for IC50: large cell lung cancer cell line, MTT, 48 h continuous drug exposure; for in-vitro cytotoxicity in large cell lung cancer cell line (NCIH460): result in words. In kind it is cell-based, human. The gist of the method: as §1
Series [8] deals with A549 lung cancer cell line. The series is described as follows: In vitro anticancer activity, MTT assay. In kind it is cell-based, human. The following applies: for in-vitro cytotoxicity in lung cancer cell line (A549): result in words. Summed up: as §1
For series [9], the system named is MCF7 breast cancer cell line. The series is described as follows: In vitro anticancer activity, MTT assay. In kind it is cell-based, human. The following applies: for IC50: breast cancer cell line, MTT, 48 h continuous drug exposure; for in-vitro cytotoxicity in breast cancer cell line (MCF-7): result in words. Summed up:
as §1

As to `COc1cc2cc3c(cc2cc1OCCN1CCN(c2ccccn2)CC1)N=C[C@@H]1CCCN1C3=O` [12a, 8-Methoxy-9-(2-[4-(2-pyridyl)piperazino]ethoxy)-(13aS)-1,2,3,13a-tetrahydro-5H-pyrrolo[2,1-c][1,4]naphthodiazepin-5-one], the 50% inhibitory concentration (IC50) (commonly the concentration that gives 50% inhibition) amounted to 4320 nM in [1] (read-out: IC50 COS-1); 160 nM in series [2] (small intestine cell line, MTT, 48 h continuous drug exposure, read-out: IC50 IEC-6); 860 nM in the series with L-6; 220 nM in series [5] (liver cancer cell line, MTT, 48 h continuous drug exposure, read-out: IC50 HEPG2); 100 nM in [6]; 240 nM in series [7]. Besides, the IC50 in series [8] (lung cancer cell line, MTT, 48 h continuous drug exposure, read-out: IC50 A549) came out at 320 nM; in series [9], 10 nM. Further, the “in-vitro cytotoxicity in small intestine cancer cell line (IEC-6)” value in series [2] is “exhibiting in-vitro cytotoxicity”. The “in-vitro cytotoxicity in skeletal cancer cell line (L-6)” value in series [3] was “exhibiting in-vitro cytotoxicity”. The “in-vitro cytotoxicity in kidney cancer cell line (COS-1)” value in [4] is reported as “exhibiting in-vitro cytotoxicity”. Moreover, the “ΔTm after incubation at 37° C. for 0 hr” value with calf thymus DNA (CT-DNA) is 5.8 °C. Further, in the series with calf thymus DNA (CT-DNA), the “ΔTm after incubation at 37° C. for 18 hrs” value worked out at 7.1 °C. The “in-vitro cytotoxicity in liver cancer cell line (HEPG2)” value in series [5] was “exhibiting in-vitro cytotoxicity”. The “in-vitro cytotoxicity in prostrate cancer cell line (PC-3)” value in [6] is “exhibiting in-vitro cytotoxicity”. The “in-vitro cytotoxicity in large cell lung cancer cell line (NCIH460)” value in series [7] was “exhibiting in-vitro cytotoxicity”. The “in-vitro cytotoxicity in lung cancer cell line (A549)” value in series [8] was “exhibiting in-vitro cytotoxicity”. The “in-vitro cytotoxicity in breast cancer cell line (MCF-7)” value in [9] was “exhibiting in-vitro cytotoxicity”.

As to `CCN1CCN(CCOc2cc3cc4c(cc3cc2OC)N=C[C@@H]2CCCN2C4=O)CC1` [15a, 9-Methoxy-8-[2-(4-ethylpiperazino)ethoxy]-(13aS)-1,2,3,13a-tetrahydro-5H-pyrrolo[2,1-c][1,4]naphthodiazepin-5-one], the concentration for half-maximal inhibition (IC50) was 3660 nM in series [1] (COS-1); 10 to 5840 nM in series [2] (IEC-6, range over the listed compounds, exposure period of at least 48 hrs, read-out: IC50 against small intestine cancer cell lines); 130 nM in series [2] (IEC-6, small intestine cell line, MTT, 48 h continuous drug exposure, read-out: IC50 IEC-6); 800 to 4320 nM in series [4] (COS-1, range over the listed compounds, exposure period of at least 48 hrs, read-out: IC50 against kidney cancer cell lines); 1870 nM in the series with L-6; 200 nM in series [5] (Homo sapiens, HepG2, liver cancer cell line, MTT, 48 h continuous drug exposure, read-out: IC50 HEPG2). In addition, the IC50 in series [5] (Homo sapiens, HepG2, range over the listed compounds, exposure period of at least 48 hrs, read-out: IC50 against liver cancer cell lines) is 20 to 7320 nM; in series [6] (Homo sapiens) it was 410 nM; in [7] (Homo sapiens, NCI-H460) it was 1250 nM; in series [8] (Homo sapiens, A549, lung cancer cell line, MTT, 48 h continuous drug exposure, read-out: IC50 A549), 540 nM; in [8] (Homo sapiens, A549, range over the listed compounds, exposure period of at least 48 hrs, read-out: IC50 against lung cancer cell lines), 20 to 11900 nM; in series [9] (Homo sapiens, MCF7) it was 40 nM. In [2], the “in-vitro cytotoxicity in small intestine cancer cell line (IEC-6)” value is reported as “exhibiting in-vitro cytotoxicity”. Also, the “in-vitro cytotoxicity in skeletal cancer cell line (L-6)” value in series [3] is given as “exhibiting in-vitro cytotoxicity”. Moreover, in series [4], the “in-vitro cytotoxicity in kidney cancer cell line (COS-1)” value was “exhibiting in-vitro cytotoxicity”. Further, the “ΔTm after incubation at 37° C. for 0 hr” value with calf thymus DNA (CT-DNA) was found to be 6.1 °C. For the same compound, the “ΔTm after incubation at 37° C. for 18 hrs” value with calf thymus DNA (CT-DNA) worked out at 7.2 °C. Besides, the “in-vitro cytotoxicity in liver cancer cell line (HEPG2)” value in series [5] is on record as “exhibiting in-vitro cytotoxicity”. The “in-vitro cytotoxicity in prostrate cancer cell line (PC-3)” value in [6] was “exhibiting in-vitro cytotoxicity”. In addition, the “in-vitro cytotoxicity in large cell lung cancer cell line (NCIH460)” value in [7] is “exhibiting in-vitro cytotoxicity”. For the same compound, the “in-vitro cytotoxicity in lung cancer cell line (A549)” value in series [8] is “exhibiting in-vitro cytotoxicity”. Further, the “in-vitro cytotoxicity in breast cancer cell line (MCF-7)” value in series [9] is recorded as “exhibiting in-vitro cytotoxicity”.
